Test results published in patent US10689354B2, “Aminoazole derivative” (Teijin Pharma Limited, priority 2015, dated 2020).

What was measured:
human androgen receptor = target: T1, human androgen receptor (Homo sapiens, UniProt P10275); assay: Reporter assay of an androgen receptor responsive sequence (luciferase, transiently transfected HEK293 cells); type: cell-based; conditions: 24 hours incubation, relative to activity of 100 nM DHT, read-out: AR transcriptive activity (pEC50) (converted)
T1 construct: expressed in transfected cells; host or cells: HEK293
T1 sequence (P10275 1-920): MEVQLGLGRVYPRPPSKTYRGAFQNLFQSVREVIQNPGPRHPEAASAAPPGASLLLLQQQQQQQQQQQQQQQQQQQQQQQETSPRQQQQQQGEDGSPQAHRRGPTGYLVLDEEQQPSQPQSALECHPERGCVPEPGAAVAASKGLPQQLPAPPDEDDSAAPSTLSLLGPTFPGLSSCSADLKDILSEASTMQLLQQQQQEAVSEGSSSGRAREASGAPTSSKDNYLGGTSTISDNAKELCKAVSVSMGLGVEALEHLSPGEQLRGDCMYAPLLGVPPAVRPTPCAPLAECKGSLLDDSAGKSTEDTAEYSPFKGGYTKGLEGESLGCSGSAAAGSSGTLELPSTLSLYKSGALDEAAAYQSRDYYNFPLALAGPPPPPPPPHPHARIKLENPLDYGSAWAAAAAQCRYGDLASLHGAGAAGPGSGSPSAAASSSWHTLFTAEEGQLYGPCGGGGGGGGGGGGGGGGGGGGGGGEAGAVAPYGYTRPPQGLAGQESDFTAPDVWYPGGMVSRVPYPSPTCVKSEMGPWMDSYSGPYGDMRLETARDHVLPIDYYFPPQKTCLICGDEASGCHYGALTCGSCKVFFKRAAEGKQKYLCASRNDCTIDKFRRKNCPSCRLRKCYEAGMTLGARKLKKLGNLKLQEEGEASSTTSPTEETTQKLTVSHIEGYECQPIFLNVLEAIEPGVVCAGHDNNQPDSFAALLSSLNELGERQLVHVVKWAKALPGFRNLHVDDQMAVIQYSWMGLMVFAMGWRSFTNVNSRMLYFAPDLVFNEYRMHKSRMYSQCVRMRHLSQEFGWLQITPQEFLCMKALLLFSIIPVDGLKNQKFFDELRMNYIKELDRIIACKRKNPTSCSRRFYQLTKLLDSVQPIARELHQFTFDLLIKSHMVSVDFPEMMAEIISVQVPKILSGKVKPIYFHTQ
Procedure: Reporter Assay of an Androgen Receptor Responsive Sequence
To examine the agonist activity of compounds for androgen, a reporter assay using an androgen receptor responsive sequence was conducted.
Using Lipofectamine 2000 (Invitrogen), a plasmid mixture (pGL4-ARE (200 ng/well), pcDNA3-hAR (20 ng/well), pRL-TK (Promega) (150 ng/well)) was transiently transfected into HEK293 cells. The contents of the plasmid (mixture) are as follows:
pGL4-ARE is a reporter plasmid containing firefly luciferase sequence under the control of androgen receptor responsive sequence; pcDNA3-hAR is a plasmid containing full-length sequence of human androgen receptor under the constant control of CMV promoter; pRL-TK is a plasmid containing Renilla Luciferase sequence under the control of herpes simplex virus thymidine kinase and used as an internal standard for evaluations of transfection efficiency and compound toxicity.
After the incubation of Lipofectamine 2000 and the plasmid mixture in Opti-MEM for 20 minutes, the mixture was mixed with a cell suspension prepared with Opti-MEM in the similar way, and the cell suspension was plated to a 96-well plate at 20000 cells/well. The transfection was conducted by incubating the plates under the condition of 5% CO2 at 37° C. for 3 hours. Three hours after the transfection, the culture medium was removed and a compound solution prepared by DMEM supplemented with 5% FBS and treated with charcoal was added, and the mixture was incubated under the condition of 5% CO2 at 37° C. for 24 hours. After the incubation with the compound, luciferase activities were measured with a luminometer using Dual-Glo™ Luciferase Assay System (Promega). The measurement of the luciferase activities was performed in accordance with the protocol recommended by Promega. The activity of the compound was determined by comparing to the activity of 100 nM of DHT, and quantified the logarithm value (pEC50) of reciprocal value of the effective concentration of the compound which is equal to 50% of the activity value by applying a 4 parameter goodness-of-fit calculation.

[1] = target: T2, androgen receptor (AR-LBD) (Rattus norvegicus, UniProt P15207); assay: Evaluation of androgen receptor affinity (PolarScreen Androgen Receptor Competitor Assay Kit, Red; fluorescence polarization); conditions: 22° C. for 5 hours, relative to binding rate of 1 μM DHT, read-out: AR affinity (pEC50) (converted)
T2 construct: 5 μL of 2×AR-LBD/Fluoromone AL Red Complex contained in the kit; purchased Invitrogen
T2 sequence (P15207 651-882 limits assumed): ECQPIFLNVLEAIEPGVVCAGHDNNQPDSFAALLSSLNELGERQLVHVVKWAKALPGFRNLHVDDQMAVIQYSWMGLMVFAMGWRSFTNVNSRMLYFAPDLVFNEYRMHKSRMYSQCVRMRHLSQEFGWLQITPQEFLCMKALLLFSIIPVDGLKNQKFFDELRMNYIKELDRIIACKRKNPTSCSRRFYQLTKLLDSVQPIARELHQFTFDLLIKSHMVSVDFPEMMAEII
Outline: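 pEC50 values reflect tracer displacement from AR-LBD (Fluoromone AL Red complex) measured by fluorescence polarization after 5 h at 22° C, normalized to 1 μM DHT and fitted with a 4-parameter model.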

| Structure (SMILES) | EC50 (human androgen receptor) | EC50 [1] |
| --- | --- | --- |
| Cc1sc(N(CCc2ccc(Cl)cc2)CC[C@H]2CCCC[C@@H]2O)nc1C(=O)NS(C)(=O)=O (racemic) [Compound 146, 2-[2-(4-chlorophenyl)ethyl-[2-[trans-2-hydroxycyclohexyl]ethyl]amino]-5-methyl-N-methylsulfonyl-thiazole-4-carboxamide] | 794 nM | 50.1 nM |
| Cc1sc(N(Cc2ccc(F)cc2)[C@H]2C[C@@H]2c2ccccc2)nc1C(=O)NS(C)(=O)=O (racemic) [Compound 149, 2-[(4-fluorophenyl)methyl-(trans-2-phenylcyclopropyl)amino]-5-methyl-N-methylsulfonyl-thiazole-4-carboxamide] | 1000 nM | 158 nM |
| Cc1sc(N(Cc2ccc(Cl)cc2)[C@H]2C[C@@H]2c2ccccc2)nc1C(=O)NS(C)(=O)=O (racemic) [Compound 150, 2-[(4-chlorophenyl)methyl-(trans-2-phenylcyclopropyl)amino]-5-methyl-N-methylsulfonyl-thiazole-4-carboxamide] | 631 nM | 79.4 nM |
| Cc1sc(N(CC[C@@H]2CCCC[C@@H]2O)c2ccc(C#N)cc2)nc1C(=O)NS(C)(=O)=O (racemic) [Compound 409, 2-[4-cyano-N-[2-[cis-2-hydroxycyclohexyl]ethyl]anilino]-5-methyl-N-methylsulfonyl-thiazole-4-carboxamide] | 251 nM | 251 nM |
| Cc1sc(N(CC[C@@H]2CCCC[C@H]2O)c2ccc(C#N)cc2)nc1C(=O)NS(C)(=O)=O (racemic) [Compound 410, 2-[4-cyano-N-[2-[trans-2-hydroxycyclohexyl]ethyl]anilino]-5-methyl-N-methylsulfonyl-thiazole-4-carboxamide] | 316 nM | 158 nM |
| Cc1sc(N(CC[C@H]2CC[C@@H](O)C2)c2ccc(C#N)cc2)nc1C(=O)NS(C)(=O)=O (racemic) [Compound 436, 2-[4-cyano-N-[2-[cis-3-hydroxycyclopentyl]ethyl]anilino]-5-methyl-N-methylsulfonyl-thiazole-4-carboxamide] | 1580 nM | 501 nM |
| Cc1sc(N(C[C@@H]2CCCC[C@H](O)C2)c2ccc(C#N)cc2)nc1C(=O)NS(C)(=O)=O (racemic) [Compound 473, 2-[4-cyano-N-[[cis-3-hydroxycycloheptyl]methyl]anilino]-5-methyl-N-methylsulfonyl-thiazole-4-carboxamide] | 1260 nM | 631 nM |
| Cc1sc(N(C[C@@H]2CCCC[C@@H](O)C2)c2ccc(C#N)cc2)nc1C(=O)NS(C)(=O)=O (racemic) [Compound 474, 2-[4-cyano-N-[[trans-3-hydroxycycloheptyl]methyl]anilino]-5-methyl-N-methylsulfonyl-thiazole-4-carboxamide] | 1000 nM | 794 nM |
| Cc1oc(N(CCc2ccc(Cl)cc2)CC[C@@H]2CCCC[C@H]2O)nc1C(=O)NS(C)(=O)=O (racemic) [Compound 547, 2-[2-(4-chlorophenyl)ethyl-[2-[trans-2-hydroxycyclohexyl]ethyl]amino]-5-methyl-N-methylsulfonyl-oxazole-4-carboxamide] | 2510 nM | 316 nM |
| Cc1oc(N(CC[C@@H]2CCCC[C@H]2O)c2ccc(C#N)cc2)nc1C(=O)NS(C)(=O)=O (racemic) [Compound 624, 2-[4-cyano-N-[2-[trans-2-hydroxycyclohexyl]ethyl]anilino]-5-methyl-N-methylsulfonyl-oxazole-4-carboxamide] | 7940 nM | 794 nM |
| CCc1oc(N(CC[C@@H]2CCCC[C@H]2O)c2ccc(C#N)cc2)nc1C(=O)NS(C)(=O)=O (racemic) [Compound 629, 2-[4-cyano-N-[2-[trans-2-hydroxycyclohexyl]ethyl]anilino]-5-ethyl-N-methylsulfonyl-oxazole-4-carboxamide] | 2510 nM | 316 nM |
| Cc1sc(N(Cc2ccccc2)c2ccc(C#N)cc2)nc1C(=O)NS(C)(=O)=O [Compound 1, 2-(N-benzyl-4-cyano-anilino)-5-methyl-N-methylsulfonyl-thiazole-4-carboxamide] | 79.4 nM | 63.1 nM |
| Cc1sc(N(Cc2csc(C(F)(F)F)n2)c2ccc(C#N)cc2)nc1C(=O)NS(C)(=O)=O [Compound 2, 2-[4-cyano-N-[[2-(trifluoromethyl)thiazol-4-yl]methyl]anilino]-5-methyl-N-methylsulfonyl-thiazole-4-carboxamide] | 100 nM | 100 nM |
| COc1cccc(CN(c2ccc(C#N)cc2)c2nc(C(=O)NS(C)(=O)=O)c(C)s2)c1 [Compound 3, 2-[4-cyano-N-[(3-methoxyphenyl)methyl]anilino]-5-methyl-N-methylsulfonyl-thiazole-4-carboxamide] | 126 nM | 63.1 nM |
| Cc1sc(N(Cc2cccc(OC(F)F)c2)c2ccc(C#N)cc2)nc1C(=O)NS(C)(=O)=O [Compound 4, 2-[4-cyano-N-[[3-(difluoromethoxy)phenyl]methyl]anilino]-5-methyl-N-methylsulfonyl-thiazole-4-carboxamide] | 63.1 nM | 25.1 nM |
| Cc1sc(N(Cc2ccccc2OC(F)F)c2ccc(C#N)cc2)nc1C(=O)NS(C)(=O)=O [Compound 5, 2-[4-cyano-N-[[2-(difluoromethoxy)phenyl]methyl]anilino]-5-methyl-N-methylsulfonyl-thiazole-4-carboxamide] | 251 nM | 100 nM |
| Cc1sc(N(Cc2cccc(CO)c2)c2ccc(C#N)cc2)nc1C(=O)NS(C)(=O)=O [Compound 6, 2-[4-cyano-N-[[3-(hydroxymethyl)phenyl]methyl]anilino]-5-methyl-N-methylsulfonyl-thiazole-4-carboxamide] | 316 nM | 200 nM |
| Cc1sc(N(Cc2ccc(OC(F)(F)F)cc2)c2ccc(C#N)cc2)nc1C(=O)NS(C)(=O)=O [Compound 7, 2-[4-cyano-N-[[4-(trifluoromethoxy)phenyl]methyl]anilino]-5-methyl-N-methylsulfonyl-thiazole-4-carboxamide] | 63.1 nM | 31.6 nM |
| Cc1sc(N(Cc2cccc(C#N)c2)c2ccc(C#N)cc2)nc1C(=O)NS(C)(=O)=O [Compound 9, 2-[4-cyano-N-[(3-cyanophenyl)methyl]anilino]-5-methyl-N-methylsulfonyl-thiazole-4-carboxamide] | 398 nM | 100 nM |
| Cc1sc(N(CCC2CCCCC2)Cc2ccc(Cl)cc2)nc1C(=O)NS(=O)(=O)C1CC1 [Compound 730, 2-[(4-chlorophenyl)methyl-(2-cyclohexylethyl)amino]-N-cyclopropylsulfonyl-5-methyl-thiazole-4-carboxamide] | > 10000 nM |  |
